In test [1] the test system is rat. Nature of the test: Tail-flick test: antinociception of albuterol, morphine and morphine plus albuterol (% MPE, A50). The format is in vivo. The text has this:
The tail flick test was first described by D'Amour and Smith (1941), and remains essentially unchanged in application. (See generally D'Amour, F. E. and Smith, D. L., “A method for determining loss of pain sensation”, J. Pharmacol. Exp. Therap., 72:74-79(1941); Dewey, D. L. and Harris, L. S., The Tail-flick test. In: S. Ehrenpreis and A. Neidle (Eds.), Methods in Narcotic Research, Marcel Dekker, Inc., New York, 1975, pp. 101-109; and Dubner, R. and Ren, K., “Assessing transient and persistent pain in animals.” In: P. D. Wall and R. Melzack (Eds.), Textbook of Pain, Churchill Livingstone, London, 1999, pp. 359-369). Quite simply, the tail of a rat or mouse is exposed to radiant heat, and the latency to withdraw is determined. The basal heat intensity is set so that naive rats withdraw their tails within 2 to 3 sec. A cut-off latency of 10 sec (i.e., 3 to 4 times basal control value) is commonly employed to prevent tissue damage. An alternative to using radiant heat is to dip the tail into a water bath maintained at a fixed temperature, usually in the moderately noxious range of about 52° C. or 55° C. One advantage of a water bath is that the temperature is kept constant.
The tail-flick test is considered to be very robust in that weak analgesic agents are not detected by this test. […] It is even possible to perform the tail-flick test in lightly anesthetized animals.
Data obtained from the rat tail-flick test conform to a graded dose-response curve. The raw tail withdrawal latencies are converted to a % MPE (% maximal possible effect) by the formula:
% MPE=100×(test latency−basal latency)/(cut-off−basal latency).
This formula constrains the data to fit between 0% MPE and 100% MPE. […] These calculations then allow for the determination of relative potencies of different drugs and allow for the isobolographic determination of possible synergistic effects. Instances where the test latency is less than the basal latency produces a negative % MPE, which is meaningless unless one is measuring hyperalgesia.
Absent any interaction, the dose-effect curves for morphine alone and in the presence of albuterol should be identical.
This manipulation allowed the construction of dose-effect curves and more importantly, the calculation of the A50 (dose required to produce a 50% effect) and the confidence intervals. The data were converted to % MPE based on the equation:
% MPE=(response−baseline)/(8.2−baseline)×100.
Baseline refers to the pre-treatment tail-flick latencies, and 8.2 represents the maximal effect. […] The A50 values and confidence intervals for each of the dose-effect curves were determined from linear regression analysis of the logdose-effect curves. Significant shifts in the dose-effect curves were indicated by Student's t-statistic applied to the A50 values obtained for morphine and morphine plus albuterol, and was performed with our custom-designed data analysis software.
The SEM values are approximate and are derived as a ratio of the SEM of the raw data to the respective mean and adjusted as a function of % MPE.

Test [2] concerns mouse. Nature of the test: Chemically-induced (acetic acid) abdominal constrictions in the mouse. The format is in vivo. The following applies: mean ± S.E.M. The method, then: Albuterol or vehicle 1 was dosed intraperitoneally (−25 min), followed by a subcutaneous dose of indomethacin or vehicle 2 (−20 min), prior to acetic acid (0.7% v/v) administration (0 min).

These results are taken from patent US20040209850A1, “Methods of treating pain and compositions for use therefor” (TheraQuest Biosciences, LLC, priority 2003, published 2004).

Structures are written as SMILES.

For the compound `CN1CC[C@]23c4c5ccc(O)c4O[C@H]2[C@@H](O)C=C[C@H]3[C@H]1C5` [Morphine], the “A50 (95% confidence interval), dose required to produce a 50% effect” value in test [1] (30 minutes after injection) is 4.53 mg/kg; in test [1] (30 minutes after injection, listed as Morphine alone), 4.53 (3.92 to 5.24) mg/kg; in test [1] (60 minutes after injection), 9.94 mg/kg; in test [1] (60 minutes after injection, listed as Morphine alone), 9.94 (9.84 to 10.04) mg/kg. The “dose-dependency of antinociception (FIG. 1)” value in test [1] (dose-effect curves as % MPE) is on record as “demonstrated dose-dependent antinociception”. Moreover, in test [1] (morphine 0.3 mg/kg to 2.5 mg/kg), the “antinociceptive effect (in words)” value is on record as “minimal effects”. For the same compound, the “Antinociceptive effect (as % MPE)” value stood at 25.86 ± 3.31 % MPE in test [1] (morphine alone 0.3125 mg/kg, 30 minutes); 24.14 ± 1.27 % MPE in test [1] (morphine alone 0.3125 mg/kg, 60 minutes); 22.41 ± 1.82 % MPE in test [1] (morphine alone 0.625 mg/kg, 30 minutes); 20.69 ± 1.72 % MPE in test [1] (morphine alone 0.625 mg/kg, 60 minutes); 33.33 ± 2.27 % MPE in test [1] (morphine alone 1.25 mg/kg, 30 minutes); 19.3 ± 2.14 % MPE in test [1] (morphine alone 1.25 mg/kg, 60 minutes). Further, the “Antinociceptive effect (as % MPE)” value in test [1] (morphine alone 2.5 mg/kg, 30 minutes) was determined as 28.57 ± 2.04 % MPE; in test [1] (morphine alone 2.5 mg/kg, 60 minutes), 21.43 ± 1.69 % MPE; in test [1] (morphine alone 5 mg/kg, 30 minutes), 44.07 ± 3.6 % MPE; in test [1] (morphine alone 5 mg/kg, 60 minutes) it was 13.56 ± 2.19 % MPE; in test [1] (morphine alone 10 mg/kg, 30 minutes), 91.07 ± 14.19 % MPE; in test [1] (morphine alone 10 mg/kg, 60 minutes), 50 ± 9.26 % MPE.
Regarding `COc1ccc2c(c1)c(CC(=O)O)c(C)n2C(=O)c1ccc(Cl)cc1` [Indomethacin], the “Number of Abdominal Constrictions Exhibited in Time Period (min) Post Acetic Acid” value (from here on “Number”) was determined as 14.3 ± 2.6 in test [2] (indomethacin 0.1 mg/kg s.c., 5-10 min); 23.6 ± 3.7 in test [2] (indomethacin 0.1 mg/kg s.c., 5-15 min); 7.5 ± 2.0 in test [2] (indomethacin 1 mg/kg s.c., 5-10 min); 14.5 ± 2.9 in test [2] (indomethacin 1 mg/kg s.c., 5-15 min); 6.8 ± 1.7 in test [2] (indomethacin 3 mg/kg s.c., 5-10 min); 12.2 ± 3.1 in test [2] (indomethacin 3 mg/kg s.c., 5-15 min). In addition, the “Number” value was determined as 8.3 ± 2.0 in test [2] (indomethacin 5 mg/kg s.c., 5-10 min); 14.1 ± 3.4 in test [2] (indomethacin 5 mg/kg s.c., 5-15 min); 6.8 ± 1.7 in test [2] (indomethacin 10 mg/kg s.c., 5-10 min); 11.9 ± 2.9 in test [2] (indomethacin 10 mg/kg s.c., 5-15 min); 10.5 ± 2.3 in test [2] (indomethacin 30 mg/kg s.c., 5-10 min); 17.6 ± 3.2 in test [2] (indomethacin 30 mg/kg s.c., 5-15 min). The “Number” value in test [2] (indomethacin 50 mg/kg s.c., 5-10 min) was found to be 1.4 ± 0.6; in test [2] (indomethacin 50 mg/kg s.c., 5-15 min) it was 4.5 ± 1.3.
